# Experimental data taken from patent EP0641797A1, “Cephem derivatives and antimicrobial agents containing the same” (KATAYAMA SEIYAKUSYO CO. Ltd., priority 1993, dated 1995).
# Columns and labels:
# Assay in all cases: MIC on standard strains, standard method of Japan Society of Chemotherapy
# Type in all cases: cell-based
# E. cloacae ATCC 13407 = settings: Enterobacter cloacae, ATCC13407, E. cloacae ATCC 13407; read-out: MIC
# Description: (§1) Antimicrobial activity of the compounds of the present invention were measured using CTM (cefotiam) and FMOX (flomoxef) as control drugs in accordance with the standard method of Japan Society of Chemotherapy. Of the 25 standard strains used in this test, Staphylococcus aureus 167 and Staphylococcus aureus 195 belong to MRSA.
# (§2) In these tables, drugs tested are shown by the corresponding examples in which they were synthesized.
# P. vulugaris OX-19 = tested on: P. vulugaris OX-19
# Description: as §1, §2
# S. epidemidis IAM 1296 = tested on: S. epidemidis IAM 1296
# Description: as §1, §2
# E. coli NHIJ JC-2 = settings: Escherichia coli, NHIJJC2
# Description: as §1, §2
# P. mirabilis IFO 3849 = settings: Proteus mirabilis, IFO3849, P. mirabilis IFO 3849; read-out: MIC
# Description: as §1, §2
# C. freundii ATCC 8090 = settings: Citrobacter freundii, ATCC8090, C. freundii ATCC 8090; read-out: MIC
# Description: as §1, §2
# S. aureus 209p JC-1 = settings: Staphylococcus aureus, 209P, read-out: MIC
# Description: as §1, §2
# E. coli CSH2(RK1) = settings: Escherichia coli
# Description: as §1, §2
# S. aureus Smith = settings: Staphylococcus aureus, read-out: MIC
# Description: as §1, §2
# S. aureus 167 = settings: Staphylococcus aureus; S. aureus 167 (MRSA)
# Description: as §1, §2
# M. morganii IFO 3848 = settings: Morganella morganii, IFO3848
# Description: as §1, §2
# S. marcescens IAM 1184 = settings: Serratia marcescens, IAM1184, S. marcescens IAM 1184; read-out: MIC
# Description: as §1, §2
# B. subtilis ATCC 6633 = settings: Bacillus subtilis, ATCC6633, B. subtilis ATCC 6633; read-out: MIC
# Description: as §1, §2
# E. cloacae Nek39 = settings: Enterobacter cloacae, NEK39, E. cloacae Nek39; read-out: MIC
# Description: as §1, §2
# E. coli CSH2(RE45) = settings: Escherichia coli
# Description: as §1, §2
# P. cepacia = settings: Burkholderia cepacia, read-out: MIC
# Description: as §1, §2
# K. pneuminiae No. 42 = tested on: K. pneuminiae No. 42
# Description: as §1, §2
# A. faecalis ATCC 3750 = settings: Alcaligenes faecalis, ATCC3750, A. faecalis ATCC 3750; read-out: MIC
# Description: as §1, §2
# A. calcoaceticos T59 = settings: read-out: MIC
# Description: as §1, §2
# P. aeruginosa NCTC 10490 = settings: Pseudomonas aeruginosa, NCTC10490, P. aeruginosa NCTC 10490; read-out: MIC
# Description: as §1, §2
# S. aureus 195 = settings: Staphylococcus aureus; S. aureus 195 (MRSA)
# Description: as §1, §2
# P. aeruginosa AKR17 = settings: Pseudomonas aeruginosa
# Description: as §1, §2
# S. marcescens No. 16-2 = settings: Serratia marcescens, NO.162
# Description: as §1, §2
# M. luteus ATCC 9341 = settings: Micrococcus luteus, ATCC9341
# Description: as §1, §2
# K. pneuminiae IFO 3317 = tested on: K. pneuminiae IFO 3317
# Description: as §1, §2
SMILES,MIC (E. cloacae ATCC 13407) [µg/mL],MIC (P. vulugaris OX-19) [µg/mL],MIC (S. epidemidis IAM 1296) [µg/mL],MIC (E. coli NHIJ JC-2) [µg/mL],MIC (P. mirabilis IFO 3849) [µg/mL],MIC (C. freundii ATCC 8090) [µg/mL],MIC (S. aureus 209p JC-1) [µg/mL],MIC (E. coli CSH2(RK1)) [µg/mL],MIC (S. aureus Smith) [µg/mL],MIC (S. aureus 167) [µg/mL],MIC (M. morganii IFO 3848) [µg/mL],MIC (S. marcescens IAM 1184) [µg/mL],MIC (B. subtilis ATCC 6633) [µg/mL],MIC (E. cloacae Nek39) [µg/mL],MIC (E. coli CSH2(RE45)) [µg/mL],MIC (P. cepacia) [µg/mL],MIC (K. pneuminiae No. 42) [µg/mL],MIC (A. faecalis ATCC 3750) [µg/mL],MIC (A. calcoaceticos T59) [µg/mL],MIC (P. aeruginosa NCTC 10490) [µg/mL],other results
"Nc1nc(/C(=N/O)C(=O)N[C@@H]2C(=O)N3C(C(=O)[O-])=C(C[n+]4cccc(-c5ncno5)c4)CS[C@H]23)cs1 [Ex. 7, 7β-[2-(2-aminothiazol-4-yl)-2-syn-hydroxyiminoacetamido]-3-[3-(1,2,4-oxadiazol-5-yl)pyridinio]methyl-3-cephem-4-carboxylate]",6.25,1.56,0.2,0.78,0.78,0.78,0.39,1.56,0.78,12.5,0.39,0.78,0.78,100,1.56,> 100,1.56,3.13,25,6.25,MIC (S. aureus 195): 6.25 µg/mL; MIC (P. aeruginosa AKR17): > 100 µg/mL; MIC (S. marcescens No. 16-2): > 100 µg/mL; MIC (M. luteus ATCC 9341): 0.2 µg/mL; MIC (K. pneuminiae IFO 3317): 0.78 µg/mL
"Nc1nc(/C(=N/O)C(=O)N[C@@H]2C(=O)N3C(C(=O)[O-])=C(C[n+]4ccc(-c5nsc(N)n5)cc4)CS[C@H]23)cs1 [Ex. 11, 7β-[2-(2-aminothiazol-4-yl)-2-syn-hydroxyiminoacetamido]-3-[4-(5-amino-1,2,4-thiadiazol-3-yl)pyridinio]methyl-3-cephem-4-carboxylate]",6.25,0.1,0.05,0.1,0.2,0.2,0.1,0.39,0.1,6.25,0.05,0.39,0.1,> 100,0.2,> 100,0.39,1.56,25,3.13,MIC (S. aureus 195): 1.56 µg/mL; MIC (P. aeruginosa AKR17): > 100 µg/mL; MIC (S. marcescens No. 16-2): 100 µg/mL; MIC (M. luteus ATCC 9341): 0.05 µg/mL; MIC (K. pneuminiae IFO 3317): 0.1 µg/mL
"Nc1nnc(-c2cc[n+](CC3=C(C(=O)[O-])N4C(=O)[C@@H](NC(=O)/C(=N\O)c5csc(N)n5)[C@H]4SC3)cc2)o1 [Ex. 15, 7β-[2-(2-aminothiazol-4-yl)-2-syn-hydroxyiminoacetamido]-3-[4-(2-amino-1,3,4-oxadiazol-5-yl)pyridinio]methyl-3-cephem-4-carboxylate]",6.25,0.2,0.1,0.2,0.2,0.2,0.39,0.78,0.39,6.25,0.1,0.2,0.39,50,0.39,> 100,0.39,1.56,12.5,1.56,MIC (S. aureus 195): 6.25 µg/mL; MIC (P. aeruginosa AKR17): > 100 µg/mL; MIC (S. marcescens No. 16-2): 100 µg/mL; MIC (M. luteus ATCC 9341): 0.05 µg/mL; MIC (K. pneuminiae IFO 3317): 0.2 µg/mL
"Nc1nc(/C(=N/O)C(=O)N[C@@H]2C(=O)N3C(C(=O)[O-])=C(C[n+]4cccc(-c5nsc(N)n5)c4)CS[C@H]23)cs1 [Ex. 12, 7β-[2-(2-aminothiazol-4-yl)-2-syn-hydroxyiminoacetamido]-3-[3-(5-amino-1,2,4-thiadiazol-3-yl)pyridinio]methyl-3-cephem-4-carboxylate]",3.13,0.39,0.05,0.39,0.39,0.39,0.2,0.78,0.39,6.25,0.1,0.78,0.2,100,0.39,> 100,0.78,1.56,12.5,6.25,MIC (S. aureus 195): 1.56 µg/mL; MIC (P. aeruginosa AKR17): > 100 µg/mL; MIC (S. marcescens No. 16-2): 100 µg/mL; MIC (M. luteus ATCC 9341): 0.025 µg/mL; MIC (K. pneuminiae IFO 3317): 0.2 µg/mL
